From patent US4335249A, “Herbicidal diphenyl ethers, sulfides, sulfoxides and sulfones” (Rohm and Haas Company, priority 1976, dated 1982) come the findings set out here.

Common to all, as to format: in vivo
The subject of assay [1] is cocklebur (Xanthium pensylvanicum). As to the kind of experiment: Preemergence herbicidal activity, cocklebur. The following applies: Xanthium strumarium, pre-emergence, 336 h, 2 lb/A. The gist of the method:
(§1)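 Acetone-dissolved compound, water-diluted, sprayed over soil flats at 50 gallons/acre carrier and lb/A rates; pre- vs postemergence timing is at planting vs two weeks after germination. Evaluation ~two weeks post-spray, expressed as mean percentage of plants dead.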

Assay [2] concerns marigold (Tagetes spp.). Briefly: Preemergence herbicidal activity, marigold. The following applies: pre-emergence, 336 h, 2 lb/A. In outline: as §1
The test system of assay [3] is morningglory (Ipomoca spp.). As to the kind of experiment: Preemergence herbicidal activity, morningglory. Conditions: Ipomoea, pre-emergence, 336 h, 2 lb/A. The gist of the method: as §1
The subject of assay [4] is tomato (Lycopersicon esculentum). Briefly: Preemergence herbicidal activity, tomato. Conditions: Solanum lycopersicum, pre-emergence, 336 h; Pre, 2 lb/A. In outline: as §1
Assay [5] concerns velvetleaf (Abutilon theophrasti). Briefly: Preemergence herbicidal activity, velvetleaf. Conditions: Abutilon theophrasti, pre-emergence, 336 h; Pre, 2 lb/A. The gist of the method: as §1
Assay [6] has as its system barnyardgrass (Echinochloa crusgalli). As to the kind of experiment: Preemergence herbicidal activity, barnyardgrass. Conditions: Echinochloa crus-galli, pre-emergence, 336 h; Pre, 2 lb/A. In outline:
(§2)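 Sown flats got a foliar or soil spray of compound in water-diluted acetone (carrier equivalent to 50 gallons/acre, rate in pounds per acre), given on the day of planting or, postemergence, once seedlings were two weeks old.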

In assay [7] the test system is downybrome (Bromus tectorum). As to the kind of experiment: Preemergence herbicidal activity, downybrome. Conditions: Bromus tectorum, pre-emergence, 336 h, Pre, 2 lb/A. The gist of the method:
as §1

For assay [8], the system named is foxtail (Setaria spp.). As to the kind of experiment: Preemergence herbicidal activity, foxtail. Conditions: Setaria, pre-emergence, 336 h; Pre, 2 lb/A. In outline:
as §1

Assay [9] concerns yellow nutsedge (Cyperus esculentus). Briefly: Preemergence herbicidal activity, yellow nutsedge. The following applies: Cyperus, pre-emergence, 336 h, 2 lb/A. In outline:
as §1

The subject of assay [10] is wild oats (Avena fatua). Briefly: Preemergence herbicidal activity, wild oats. The following applies: Avena fatua, pre-emergence, 336 h, Pre, 2 lb/A; read-out: % control, Wild oat. The gist of the method:
as §1

In assay [11] the test system is cocklebur (Xanthium pensylvanicum). As to the kind of experiment: Postemergence herbicidal activity, cocklebur. Conditions: Xanthium strumarium, post-emergence, 336 h, 2 lb/A. The gist of the method: as §1
For assay [12], the system named is marigold (Tagetes spp.). As to the kind of experiment: Postemergence herbicidal activity, marigold. Conditions: post-emergence, 336 h, 2 lb/A. In outline:
as §1

For assay [13], the system named is morningglory (Ipomoca spp.). As to the kind of experiment: Postemergence herbicidal activity, morningglory. Conditions: Ipomoea, post-emergence, 336 h, 2 lb/A. The gist of the method: as §1
The subject of assay [14] is tomato (Lycopersicon esculentum). As to the kind of experiment: Postemergence herbicidal activity, tomato. The following applies: Solanum lycopersicum, post-emergence, 336 h, Post, 2 lb/A. The gist of the method: as §1
For assay [15], the system named is velvetleaf (Abutilon theophrasti). As to the kind of experiment: Postemergence herbicidal activity, velvetleaf. Conditions: Abutilon theophrasti, post-emergence, 336 h, 2 lb/A. In outline: as §2
Assay [16] has as its system barnyardgrass (Echinochloa crusgalli). Briefly: Postemergence herbicidal activity, barnyardgrass. The following applies: Echinochloa crus-galli, post-emergence, 336 h; Post, 2 lb/A. The gist of the method: as §2
Assay [17] deals with downybrome (Bromus tectorum). Briefly: Postemergence herbicidal activity, downybrome. The following applies: Bromus tectorum, post-emergence, 336 h, Post, 2 lb/A. In outline:
as §1

Assay [18] deals with foxtail (Setaria spp.). Briefly: Postemergence herbicidal activity, foxtail. Conditions: Setaria, post-emergence, 336 h, Post, 2 lb/A. The gist of the method:
as §1

Assay [19] concerns yellow nutsedge (Cyperus esculentus). As to the kind of experiment: Postemergence herbicidal activity, yellow nutsedge. The following applies: Cyperus, post-emergence, 336 h, 2 lb/A. The gist of the method:
as §1

Assay [20] has as its system wild oats (Avena fatua). As to the kind of experiment: Postemergence herbicidal activity, wild oats. Conditions: Avena fatua, post-emergence, 336 h, Post, 2 lb/A; read-out: % control, Wild oat. The gist of the method:
as §1

On to `CCOC(=O)C=CCOc1ccc(Oc2ccc(C(F)(F)F)cc2Cl)cc1` [Example 30], for which the pest or weed control at 2241.7 g/ha in assay [1] came out at 0%; with marigold (Tagetes spp.) [2], 0%; in assay [3], 0%; in [4] it was 0%; in [5], 0%; in [6], 60%. For the same compound, the pest or weed control at 2241.7 g/ha in assay [7] is 0%; in the assay with foxtail (Setaria spp.) [8], 60%; in assay [9] it was 0%; in the assay on wild oats (Avena fatua) [10], 0%; in [11] it was 0%; with marigold (Tagetes spp.) [12] it was 0%. The pest or weed control at 2241.7 g/ha in [13] was 0%; in assay [14] it was 30%; in [15] it was 0%; in [16] it was 0%; in assay [17], 0%; in the assay with foxtail (Setaria spp.) [18], 100%. The figures for the pest or weed control at 2241.7 g/ha (in assay [19]; in the assay with wild oats (Avena fatua) [20]) were 0% and 30%, respectively.

Consider `C=CCOC(=O)C(C)Oc1ccc(Oc2ccc(C(F)(F)F)cc2Cl)cc1` (stereo not drawn) [Example 24], for which the pest or weed control at 2241.7 g/ha turned out to be 100% in assay [1]; 0% in the assay on marigold (Tagetes spp.) [2]; 0% in assay [3]; 0% in [4]; 0% in [5]; 100% in assay [6]. The pest or weed control at 2241.7 g/ha stood at 99% in assay [7]; 100% in the assay on foxtail (Setaria spp.) [8]; 30% in assay [9]; 80% with wild oats (Avena fatua) [10]; 20% in assay [11]; 50% with marigold (Tagetes spp.) [12]. Moreover, the pest or weed control at 2241.7 g/ha in [13] is 20%; in assay [14] it was 95%; in assay [15] it was 80%; in assay [16] it was 100%; in [17], 100%; in the assay with foxtail (Setaria spp.) [18], 100%. The pest or weed control at 2241.7 g/ha is 0% in [19] and 100% in the assay with wild oats (Avena fatua) [20].

For `CCOC(=O)C(CC)Oc1ccc(Oc2ccc(C(F)(F)F)cc2Cl)cc1` (stereo not drawn) [Example 20], the pest or weed control at 2241.7 g/ha in assay [1] came to 0%; with marigold (Tagetes spp.) [2] it was 0%; in [3], 0%; in assay [4] it was 0%; in assay [5] it was 0%; in assay [6], 99%. Moreover, the pest or weed control at 2241.7 g/ha worked out at 90% in assay [7]; 100% in the assay with foxtail (Setaria spp.) [8]; 0% in assay [9]; 40% in the assay with wild oats (Avena fatua) [10]; 0% in [11]; 0% in the assay on marigold (Tagetes spp.) [12]. Further, the pest or weed control at 2241.7 g/ha in assay [13] is 0%; in [14], 30%; in assay [15], 50%; in assay [16] it was 100%; in assay [17], 30%; in the assay with foxtail (Setaria spp.) [18], 100%. Besides, the pest or weed control at 2241.7 g/ha in assay [19] is 20%; in the assay with wild oats (Avena fatua) [20] it was 100%.

As to `CCCCCCOC(=O)C(C)Oc1ccc(Oc2ccc(C(F)(F)F)cc2Cl)cc1` (stereo not drawn) [Example 36], the pest or weed control at 2241.7 g/ha was 0% in assay [1]; 0% in the assay with marigold (Tagetes spp.) [2]; 0% in assay [3]; 0% in assay [4]; 0% in assay [5]; 100% in [6]. The pest or weed control at 2241.7 g/ha in assay [7] is 0%; with foxtail (Setaria spp.) [8], 100%; in [9], 0%; with wild oats (Avena fatua) [10], 0%; in [11], 0%; with marigold (Tagetes spp.) [12] it was 0%. Moreover, the pest or weed control at 2241.7 g/ha came to 0% in assay [13]; 0% in assay [14]; 0% in assay [15]; 100% in [16]; 60% in assay [17]; 100% in the assay with foxtail (Setaria spp.) [18]. Besides, the pest or weed control at 2241.7 g/ha in [19] is 0%; with wild oats (Avena fatua) [20] it was 100%.

As for `CCOC(=O)CCC(C)Oc1ccc(Oc2ccc(C(F)(F)F)cc2)cc1` (stereo not drawn) [Example 39], the pest or weed control at 2241.7 g/ha in [1] was found to be 0%; with marigold (Tagetes spp.) [2], 0%; in assay [3] it was 0%; in assay [4], 0%; in assay [5] it was 0%; in [6], 99%. Besides, the pest or weed control at 2241.7 g/ha in [7] was 60%; in the assay on foxtail (Setaria spp.) [8], 99%; in [9] it was 0%; in the assay with wild oats (Avena fatua) [10], 50%; in [11] it was 60%; in the assay with marigold (Tagetes spp.) [12], 0%. For the same compound, the pest or weed control at 2241.7 g/ha in [13] worked out at 40%; in assay [14], 20%; in assay [15], 0%; in assay [16], 100%; in assay [17], 100%; in the assay with foxtail (Setaria spp.) [18] it was 100%. Besides, the pest or weed control at 2241.7 g/ha amounted to 0% in assay [19] and 100% in the assay on wild oats (Avena fatua) [20].

In the case of `CC(C)OC(=O)C(C)Oc1ccc(Oc2ccc(C(F)(F)F)cc2Cl)cc1` (stereo not drawn) [Example 22], the pest or weed control at 2241.7 g/ha in [1] worked out at 0%; with marigold (Tagetes spp.) [2] it was 0%; in assay [3], 0%; in assay [4], 0%; in [5], 0%; in assay [6], 100%. For the same compound, the pest or weed control at 2241.7 g/ha was found to be 95% in [7]; 100% in the assay with foxtail (Setaria spp.) [8]; 0% in assay [9]; 60% in the assay with wild oats (Avena fatua) [10]; 30% in assay [11]; 30% in the assay on marigold (Tagetes spp.) [12]. For the same compound, the pest or weed control at 2241.7 g/ha is 20% in assay [13]; 99% in assay [14]; 40% in assay [15]; 100% in [16]; 99% in [17]; 100% in the assay with foxtail (Setaria spp.) [18]. Further, the pest or weed control at 2241.7 g/ha in [19] came to 0%; in the assay on wild oats (Avena fatua) [20] it was 100%.
